This assay has as its target T1, human PAH with the R408W mutation (Homo sapiens, UniProt P00439, R408W).
T1 construct: expressed in transfected cells
T1 sequence (P00439 1-452 R408W): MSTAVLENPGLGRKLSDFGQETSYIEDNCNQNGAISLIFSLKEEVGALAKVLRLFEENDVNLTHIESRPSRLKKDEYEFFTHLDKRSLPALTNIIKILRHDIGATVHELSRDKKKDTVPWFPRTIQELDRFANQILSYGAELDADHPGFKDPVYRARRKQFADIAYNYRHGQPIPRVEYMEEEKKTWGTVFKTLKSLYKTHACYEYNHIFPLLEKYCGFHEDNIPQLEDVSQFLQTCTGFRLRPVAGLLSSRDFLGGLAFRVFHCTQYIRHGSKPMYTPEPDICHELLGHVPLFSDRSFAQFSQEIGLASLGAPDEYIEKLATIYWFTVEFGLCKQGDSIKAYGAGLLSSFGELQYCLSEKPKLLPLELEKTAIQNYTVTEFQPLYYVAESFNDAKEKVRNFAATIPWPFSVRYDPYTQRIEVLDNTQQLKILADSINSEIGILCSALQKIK
Kind of assay: Cell Based Phenylalanine Flux Assay. To be noted: A375 cells expressing human R408W PAH, 13C-Tyrosine by LC-MS, average where tested multiple times. Further details: scale not given here.

Setting [1] is: 24 hrs with compound, read-out: AC50.
[2] abbreviates: 24 hrs compound incubation, read-out: AC50.

Read-outs that look alike come from different tables or passages of the source.

By AC50 is commonly meant the midpoint of the concentration-response curve, whichever way the signal moves. For `Cc1nc(-c2ccccn2)oc1C(=O)N1CC(C)c2[nH]cnc2C1c1nc2ccccc2s1` (stereo not drawn), the AC50 under setting [1] lay within 1 to 5 µM.
As to `O=C(c1ncco1)N1CCc2[nH]cnc2[C@@H]1c1nc2c(F)cccc2s1` [Example 1226, (R)-(4-(4-fluorobenzo[d]thiazol-2-yl)-6,7-dihydro-1H-imidazo[4,5-c]pyridin-5(4H)-yl)(oxazol-2-yl)methanone], the AC50 under setting [2] was more than 5 µM.
For `N#Cc1nn2cc(Br)ccc2c1C(=O)N1CCc2[nH]cnc2[C@H]1c1nc2ccccc2s1` [Example 1779, (S)-3-(4-(benzo[d]thiazol-2-yl)-4,5,6,7-tetrahydro-1H-imidazo[4,5-c]pyridine-5-carbonyl)-6-bromopyrazolo[1,5-a]pyridine-2-carbonitrile], under setting [2], the AC50 was less than 0.5 µM.
In the case of `O=C(c1ccnn1C(F)(F)F)N1CCc2[nH]cnc2[C@@H]1c1nc2ccccc2s1` [Example 2098, (R)-(4-(benzo[d]thiazol-2-yl)-6,7-dihydro-1H-imidazo[4,5-c]pyridin-5(4H)-yl)(1-(trifluoromethyl)-1H-pyrazol-5-yl)methanone], the AC50 under setting [2] was 0.5 to 1 µM.
As for `O=C(CCc1nccs1)N1CCc2[nH]cnc2[C@H]1c1nc2ccc(F)cc2s1` [Example 1029, (S)-1-(4-(6-fluorobenzo[d]thiazol-2-yl)-6,7-dihydro-1H-imidazo[4,5-c]pyridin-5(4H)-yl)-3-(thiazol-2-yl)propan-1-one], the AC50 under setting [2] fell in the range of 0.5 to 1 µM.
`O=C(c1ncc(Cl)s1)N1CCc2[nH]cnc2[C@H]1c1nc2ccc(Br)cc2[nH]1` [Example 975, (S)-(4-(6-bromo-1H-benzo[d]imidazol-2-yl)-6,7-dihydro-1H-imidazo[4,5-c]pyridin-5(4H)-yl)(5-chlorothiazol-2-yl)methanone]: the AC50 under setting [2] lay within 0.5 to 1 µM.
Take `O=C(c1oc(N2CCOCC2)nc1Br)N1CCc2[nH]cnc2[C@@H]1c1nc2c(F)cccc2s1` [Example 2034, (R)-(4-bromo-2-morpholinooxazol-5-yl)(4-(4-fluorobenzo[d]thiazol-2-yl)-6,7-dihydro-1H-imidazo[4,5-c]pyridin-5(4H)-yl)methanone]: the AC50 under setting [2] lay in the range of 1 to 5 µM.
As to `O=C(CCc1nccs1)N1CCc2[nH]cnc2[C@H]1c1nc2ccccc2[nH]1` [Example 900, (S)-1-(4-(1H-benzo[d]imidazol-2-yl)-6,7-dihydro-1H-imidazo[4,5-c]pyridin-5(4H)-yl)-3-(thiazol-2-yl)propan-1-one], the AC50 under setting [2] fell in the range of 0.5 to 1 µM.
Same read-out and setting: to `CC(C)(O)c1nc(C(F)F)c(C(=O)N2CCc3[nH]cnc3[C@H]2c2nc3c(F)cccc3s2)s1` [Example 2085, (S)-(4-(difluoromethyl)-2-(2-hydroxypropan-2-yl)thiazol-5-yl)(4-(4-fluorobenzo[d]thiazol-2-yl)-6,7-dihydro-1H-imidazo[4,5-c]pyridin-5(4H)-yl)methanone] belongs less than 0.5 µM; to `Cn1cc(C(=O)N2CCc3[nH]cnc3[C@@H]2c2nc3ccccc3s2)c(C(F)F)n1` [Example 1822, (R)-(4-(benzo[d]thiazol-2-yl)-6,7-dihydro-1H-imidazo[4,5-c]pyridin-5(4H)-yl)(3-(difluoromethyl)-1-methyl-1H-pyrazol-4-yl)methanone], 1 to 5 µM.
For `Cn1cc(-c2nnc(C(=O)N3CCc4[nH]cnc4[C@H]3c3nc4c(F)cccc4s3)o2)c(C(F)(F)F)n1` [Example 1927, (S)-(4-(4-fluorobenzo[d]thiazol-2-yl)-6,7-dihydro-1H-imidazo[4,5-c]pyridin-5(4H)-yl)(5-(1-methyl-3-(trifluoromethyl)-1H-pyrazol-4-yl)-1,3,4-oxadiazol-2-yl)methanone], under setting [2], the AC50 was less than 0.5 µM.
For `O=C(c1nc2ccccc2s1)N1CCc2[nH]cnc2C1c1nc2ccc(F)cc2[nH]1` (stereo not drawn), the AC50 under setting [1] is 1 to 5 µM.
Still for that read-out and setting: to `O=C(Cc1cscn1)N1CCc2[nH]cnc2[C@H]1c1nc2ccccc2s1` (single isomer, unassigned) belongs 1 to 5 µM; to `O=C(c1cncs1)N1CCc2[nH]cnc2C1c1nc2ccc(F)cc2s1` (stereo not drawn), more than 5 µM.
Turning to “(R)-2-((4-(6-fluoro-1H-benzo[d]imidazol-2-yl)-6,7-dihydro-1H-imidazo[4,5-c]pyridin-5(4H)-yl)methyl)thiazole [Example 972]”, under setting [2], the AC50 was more than 5 µM.
The same measure, in the same setting: to `O=C(c1cncs1)N1CCc2[nH]cnc2[C@@H]1c1nc2ccccc2[nH]1` [Example 915, (R)-(4-(1H-benzo[d]imidazol-2-yl)-6,7-dihydro-1H-imidazo[4,5-c]pyridin-5(4H)-yl)(thiazol-5-yl)methanone] belongs more than 5 µM.
Same read-out and setting: to `Cc1ncoc1C(=O)N1CC2(CC2)c2[nH]cnc2[C@H]1c1nc2ccccc2s1` [Example 2152, (S)-(4′-(benzo[d]thiazol-2-yl)spiro[cyclopropane-1,7′-imidazo[4,5-c]pyridin]-5′(1′H,4′H,6′H)-yl)(4-methyloxazol-5-yl)methanone] belongs 0.5 to 1 µM.
The same measure, in the same setting: to `CC(C)(O)c1nc(C2CC2)c(C(=O)N2CCc3[nH]cnc3[C@@H]2c2nc3c(F)cccc3s2)o1` [Example 1538, (R)-(4-cyclopropyl-2-(2-hydroxypropan-2-yl)oxazol-5-yl)(4-(4-fluorobenzo[d]thiazol-2-yl)-6,7-dihydro-1H-imidazo[4,5-c]pyridin-5(4H)-yl)methanone] belongs 1 to 5 µM.
With `O=C(c1ncco1)N1CCc2[nH]cnc2C1c1nc2ccccc2s1` (stereo not drawn), the AC50 under setting [1] is more than 5 µM.
Consider `O=C(c1cnc(-c2ccccc2)s1)N1CCc2[nH]cnc2[C@@H]1c1nc2ccccc2s1` [Example 1204, (R)-(4-(benzo[d]thiazol-2-yl)-6,7-dihydro-1H-imidazo[4,5-c]pyridin-5(4H)-yl)(2-phenylthiazol-5-yl)methanone], for which the AC50 under setting [2] was 1 to 5 µM.
As for `O=C(c1nnc(-c2ccc(F)cn2)o1)N1CCc2[nH]cnc2[C@H]1c1nc2c(F)cccc2s1` [Example 1711, (S)-(4-(4-fluorobenzo[d]thiazol-2-yl)-6,7-dihydro-1H-imidazo[4,5-c]pyridin-5(4H)-yl)(5-(5-fluoropyridin-2-yl)-1,3,4-oxadiazol-2-yl)methanone], under setting [2], the AC50 fell in the range of 1 to 5 µM.
Same read-out and setting: to `O=C(CC1CC1)N1CCc2[nH]cnc2[C@H]1c1nc2ccc(F)cc2s1` [Example 1117, (S)-2-cyclopropyl-1-(4-(6-fluorobenzo[d]thiazol-2-yl)-6,7-dihydro-1H-imidazo[4,5-c]pyridin-5(4H)-yl)ethanone] belongs less than 0.5 µM.
Take `COCCc1nc(C)c(C(=O)N2CCc3[nH]cnc3[C@H]2c2nc3ccccc3s2)o1` [Example 1729, (S)-(4-(benzo[d]thiazol-2-yl)-1,4,6,7-tetrahydro-5H-imidazo[4,5-c]pyridin-5-yl)(2-(2-methoxyethyl)-4-methyloxazol-5-yl)methanone]: under setting [2], the AC50 was in the range of 0.5 to 1 µM.
The same measure, in the same setting: to `O=C(C1CC1(F)F)N1CCc2[nH]cnc2[C@H]1c1nc2ccccc2s1` (single isomer, unassigned) [Example 1287] belongs more than 5 µM; to `O=C(c1ccns1)N1CCc2[nH]cnc2[C@H]1c1nc2ccccc2s1` [Example 1051], 0.5 to 1 µM.
Regarding `CN(C)CCc1nnc(C(=O)N2CCc3[nH]cnc3C2c2nc3ccccc3s2)o1` (stereo not drawn), the AC50 under setting [1] was more than 5 µM.
Take `O=C(C1CC1)N1CCc2[nH]cnc2[C@@H]1c1nc2cccc(F)c2s1` [Example 1260, (R)-cyclopropyl(4-(7-fluorobenzo[d]thiazol-2-yl)-6,7-dihydro-1H-imidazo[4,5-c]pyridin-5(4H)-yl)methanone]: under setting [2], the AC50 was more than 5 µM.
As to `CC(C)(O)c1c(Br)ccc2c(C(=O)N3CCc4[nH]cnc4[C@H]3c3nc4ccccc4s3)cnn12` [Example 1475], the AC50 under setting [2] was less than 0.5 µM.
For `Cc1nn(C)cc1-c1nnc(C(=O)N2CCc3[nH]cnc3[C@@H]2c2nc3ccccc3s2)o1` [Example 1926, (R)-(4-(benzo[d]thiazol-2-yl)-6,7-dihydro-1H-imidazo[4,5-c]pyridin-5(4H)-yl)(5-(1,3-dimethyl-1H-pyrazol-4-yl)-1,3,4-oxadiazol-2-yl)methanone], under setting [2], the AC50 fell in the range of 1 to 5 µM.
Turning to `O=C(CCC1CC1)N1CCc2[nH]cnc2[C@H]1c1nc2ccc(Br)cc2[nH]1` [Example 935, (S)-1-(4-(6-bromo-1H-benzo[d]imidazol-2-yl)-6,7-dihydro-1H-imidazo[4,5-c]pyridin-5(4H)-yl)-3-cyclopropylpropan-1-one], the AC50 under setting [2] was less than 0.5 µM.
Same read-out and setting: to `O=C(c1ocnc1C1CC1)N1CC2(CC2)c2[nH]cnc2[C@H]1c1nc2ccccc2s1` [Example 1669, (S)-(4′-(benzo[d]thiazol-2-yl)spiro[cyclopropane-1,7′-imidazo[4,5-c]pyridin]-5′(1′H,4′H,6′H)-yl)(4-cyclopropyloxazol-5-yl)methanone] belongs less than 0.5 µM.
Take `O=C(c1oc(-c2ccccc2)nc1-c1ccccc1)N1CCc2[nH]cnc2C1c1nc2ccccc2s1` (stereo not drawn): the AC50 under setting [1] fell in the range of 1 to 5 µM.
As to `O=C(c1nc2ccccc2s1)N1CCc2[nH]cnc2C1c1nc2ccc(Cl)cc2[nH]1` (stereo not drawn), the AC50 under setting [1] is more than 5 µM.
On the same count and under the same terms, to `O=C(CCc1ccc(F)cc1)N1CCc2[nH]cnc2C1c1nc2ccccc2[nH]1` (stereo not drawn) belongs more than 5 µM.
As for `NC(=O)c1nc(-c2ccccn2)oc1C(=O)N1CCc2[nH]cnc2[C@H]1c1nc2ccccc2s1` (single isomer, unassigned), the AC50 result (24 hrs with compound) is listed as “E, E”.
In the case of `Cc1nnc(CCC(=O)N2CCc3[nH]cnc3C2c2nc3ccccc3[nH]2)s1` (stereo not drawn), under setting [1], the AC50 was in the range of 1 to 5 µM.

These data come from patent publication US20250171438A1 (Agios Pharmaceuticals, Inc., priority 2022, published 2025).
